Drawing on ChEMBL document CHEMBL1141841, “Biotransformation of the trichoderma metabolite 6-n-pentyl-2H-pyran-2-one (6PAP) by selected fungal isolates” (J Nat Prod, 1999), this text covers Activity for five molecules.

The structures appear in SMILES notation. Calls of active or inactive are those of the source. The calls are words filed in the database; no cut-off is given here.

This test relates to Botrytis cinerea. Briefly: Antimicrobial activity against Botrytis cinerea by spore germination assay. Type of test: functional, organism-based.

As for `O=C(O)CCc1cccc(=O)o1`, the result was inactive. Turning to `O=C(O)CCCCc1cccc(=O)o1`, the result was inactive. In the case of `O=c1cccc(CCCCCO)o1`, the result was inactive. With `CCCCCc1cccc(=O)o1` the entry was “Active”.

`CC(O)CCCc1cccc(=O)o1` (stereo not given): the outcome was inactive.
